Experimental data taken from US6440948B1, “Thiophene A2A receptor agonists” (CV Therapeutics, Inc., priority 1999, dated 2002).

Molecular target: T1, A2A receptor (Sus scrofa, UniProt K9IW67)
T1 construct: from tissue; host or cells: pig striatum membranes
Experiment: affinity for the A2A receptor in a pig striatum membrane prep (displacement of tritiated ZM 241385)
Format: binding
Settings: pig striatal membranes, 2 nM tritiated antagonist ZM 241385, 23° C. for 2h, greater than 5 point curve
Procedure: Compounds of this invention were assayed to determine their affinity for the A2A receptor in a pig striatum membrane prep. Briefly, 0.2 mg of pig striatal membranes were treated with adenosine deaminase (2 U/mL) and 50 mM Tris buffer (pH=7,4) followed by mixing. To the pig membranes was added […] of serially diluted DMSO stock solution of the compounds of this invention at concentrations ranging from 10 nM to 100 μM or the control received […] of DMSO alone, then the: antagonist ZM 241385 in Tris buffer (50 mM, pH of 7.4) was added to achieve a final concentration of 2 nM . After incubation at 23° C. for 2h, then the solutions were filtered using a membrane harvester using multiple washing of the membranes (3x). The filter disks were counted in scintillation cocktail to determine the amount of displacement of tritiated ZM displaced by the compounds of this invention. Greater than a 5 point curve was used to generate Ki's. Compound 13 has a Ki between 1,000 and 10,000 nM.

T1 sequence (K9IW67 1-409): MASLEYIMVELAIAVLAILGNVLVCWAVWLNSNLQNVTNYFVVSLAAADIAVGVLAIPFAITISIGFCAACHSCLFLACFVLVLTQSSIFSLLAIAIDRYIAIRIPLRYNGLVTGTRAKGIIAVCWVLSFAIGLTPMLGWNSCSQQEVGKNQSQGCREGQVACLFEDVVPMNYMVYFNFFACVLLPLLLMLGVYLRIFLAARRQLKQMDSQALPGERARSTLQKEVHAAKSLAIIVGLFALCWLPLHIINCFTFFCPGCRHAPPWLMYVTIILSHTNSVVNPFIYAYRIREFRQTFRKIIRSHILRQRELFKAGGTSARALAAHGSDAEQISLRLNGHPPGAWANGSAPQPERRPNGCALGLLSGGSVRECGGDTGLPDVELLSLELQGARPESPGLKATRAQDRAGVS

- Ki: 1 to 10 µM
SMILES: Cc1ccc(-c2nc(N)c3ncn([C@@H]4O[C@H](CO)[C@@H](O)[C@H]4O)c3n2)s1 [Compound 13, (4S,2R,3R,5R)-2-[6-Amino-2-(5-methyl(2-thienyl))purin-9-yl]-5-(hydroxymethyl)oxolane-3,4-diol]
